In patent US20250129049A1, “1H-PYRAZOLE-3-AMINE DERIVATIVE HAVING BICYCLIC BACKBONE” (Sumitomo Pharma Co., Ltd., priority 2021, published 2025):

What was measured:
CHK1 kinase = CHK1 kinase (Homo sapiens (Human), UniProt O14757)
ES-2 cells = assay: Cell growth suppression experiment (ES-2); assay type: cell-based; conditions: Homo sapiens, 48 h, cultured 2 days, CellTiter-Glo 3D
Experimental: ES-2 cells were obtained from the American Type Culture Collection (ATCC). These cells were cultured at 37° C. in the presence of 5% CO2 in a McCoy's 5a medium containing 10% fetal bovine serum and 1% penicillin/streptomycin.
500 cells were seeded for each well in a 384-well plate, and the evaluated compound was added to the final DMSO concentration of 0.1% to culture the cells for 2 days. After completion of the culture, the cell viability rate was calculated using CellTiter-Glo (registered trademark) 3D Reagent (Promega, G968B).

Sequence of CHK1 kinase (O14757 whole entry): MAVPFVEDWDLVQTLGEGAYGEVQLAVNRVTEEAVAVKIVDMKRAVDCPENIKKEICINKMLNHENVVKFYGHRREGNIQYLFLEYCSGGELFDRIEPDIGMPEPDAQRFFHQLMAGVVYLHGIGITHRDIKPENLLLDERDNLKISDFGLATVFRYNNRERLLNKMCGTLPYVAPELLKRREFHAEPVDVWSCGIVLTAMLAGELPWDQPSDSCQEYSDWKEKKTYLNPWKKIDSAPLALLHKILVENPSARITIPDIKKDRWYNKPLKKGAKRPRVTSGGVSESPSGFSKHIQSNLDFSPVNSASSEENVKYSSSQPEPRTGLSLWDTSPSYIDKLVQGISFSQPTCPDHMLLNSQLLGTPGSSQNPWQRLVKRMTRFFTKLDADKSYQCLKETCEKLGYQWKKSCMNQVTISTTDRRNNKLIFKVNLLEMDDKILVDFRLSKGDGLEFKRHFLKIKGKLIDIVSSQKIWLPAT

| Structure (SMILES) | IC50 (CHK1 kinase) [nM] | IC50 (ES-2 cells) [nM] |
| --- | --- | --- |
| N#Cc1cnc(Nc2cc(-c3c(OCC4(CN)CC(F)(F)C4)cnc4cccnc34)[nH]n2)cn1 [Example 38, 5-{[5-(3-{[1-(aminomethyl)-3,3-difluorocyclobutyl]methoxy)-1,5-naphthyridin-4-yl)-1H-pyrazol-3-yl]amino}pyrazine-2-carbonitrile] | 0.93 | 8.1 |
| CC1(COc2ccc3c(c2-c2cc(Nc4cnc(C#N)cn4)n[nH]2)OCC3)CNC1 [Example 5, 5-[(5-{6-[(3-methylazetidin-3-yl)methoxy]-2,3-dihydro-1-benzofuran-7-yl}-1H-pyrazol-3-yl)amino]pyrazine-2-carbonitrile] | – | 6.7 |
| N#Cc1cnc(Nc2cc(-c3c(OCCCN)ccc4ccoc34)[nH]n2)cn1 [Example 2, 5-({5-[6-(3-aminopropoxy)-1-benzofuran-7-yl]-1H-pyrazol-3-yl}amino)pyrazine-2-carbonitrile] | 0.25 | 2.9 |
| C[C@@H](CN)COc1cnc2c(c1-c1cc(Nc3cnc(C#N)cn3)n[nH]1)OCC2 [Example 30, 5-[(5-{6-[(2S)-3-amino-2-methylpropoxy]-2,3-dihydrofuro[3,2-b]pyridin-7-yl}-1H-pyrazol-3-yl)amino]pyrazine-2-carbonitrile] | 0.43 | 14.8 |
| N#Cc1cnc(Nc2cc(-c3c(OCC4(F)CNC4)cnc4c3OCC4)[nH]n2)cn1 [Example 23, 5-[(5-{6-[(3-fluoroazetidin-3-yl)methoxy]-2,3-dihydrofuro[3,2-b]pyridin-7-yl}-1H-pyrazol-3-yl)amino]pyrazine-2-carbonitrile] | 0.3 | 6.8 |
| N#Cc1cnc(Nc2cc(-c3c(OC[C@H]4CCNC4)cnc4c3OCC4)[nH]n2)cn1 [Example 26, 5-{[5-(6-{[(3S)-pyrrolidin-3-yl]methoxy}-2,3-dihydrofuro[3,2-b]pyridin-7-yl)-1H-pyrazol-3-yl]amino}pyrazine-2-carbonitrile] | 0.34 | 9.4 |
| N#Cc1cnc(Nc2cc(-c3c(O[C@@H]4CCC[C@H](N)C4)cnc4cccnc34)[nH]n2)cn1 [Example 36, 5-{[5-(3-{[(1R,3S)-3-aminocyclohexyl]oxy}-1,5-naphthyridin-4-yl)-1H-pyrazol-3-yl]amino}pyrazine-2-carbonitrile] | 0.46 | 6 |
| N#Cc1cnc(Nc2cc(-c3c(O[C@@H]4CC[C@@H](N)C4)cnc4cccnc34)[nH]n2)cn1 [Example 37, 5-{[5-(3-{[(1R,3R)-3-aminocyclopentyl]oxy}-1,5-naphthyridin-4-yl)-1H-pyrazol-3-yl]amino}pyrazine-2-carbonitrile] | 0.49 | 6.8 |
| CC1(COc2cnc3cccnc3c2-c2cc(Nc3cnc(C#N)cn3)n[nH]2)CNC1 [Example 11, 5-[(5-{3-[(3-methylazetidin-3-yl)methoxy]-1,5-naphthyridin-4-yl}-1H-pyrazol-3-yl)amino]pyrazine-2-carbonitrile] | 0.39 | 14.8 |
| N#Cc1cnc(Nc2cc(-c3c(OCC(F)(F)CN)cnc4cccnc34)[nH]n2)cn1 [Example 9, 5-({5-[3-(3-amino-2,2-difluoropropoxy)-1,5-naphthyridin-4-yl]-1H-pyrazol-3-yl}amino)pyrazine-2-carbonitrile] | 0.64 | 4.7 |
| N#Cc1cnc(Nc2cc(-c3c(OCC4(CN)CC4(F)F)ccc4ccoc34)[nH]n2)cn1 (stereo not drawn) [Example 20, 5-{[5-(6-{[1-(aminomethyl)-2,2-difluorocyclopropyl]methoxy)-1-benzofuran-7-yl)-1H-pyrazol-3-yl]amino}pyrazine-2-carbonitrile] | – | 16.3 |
| N#Cc1cnc(Nc2cc(-c3c(O[C@@H]4CC[C@@H](N)C4)cnc4c3OCC4)[nH]n2)cn1 [Example 21, 5-{[5-(6-{[(1R,3R)-3-aminocyclopentyl]oxy)-2,3-dihydrofuro[3,2-b]pyridin-7-yl)-1H-pyrazol-3-yl]amino}pyrazine-2-carbonitrile] | – | 11.8 |
